This is an account of results in ChEMBL document CHEMBL1145274, “The evaluation of 2,8-disubstituted benzoxazinone derivatives as anti-inflammatory and anti-platelet aggregation agents” (Bioorg Med Chem Lett, 2005).

Common to all, as to format: functional, organism-based
The species named for test [1] is Homo sapiens. In words: Inhibitory concentration for anti-platelet aggregation induced by platelet activating factor at 2 ng/mL concentration.
The species entered for test [2] is Homo sapiens. Nature of the test: Inhibitory concentration for anti-platelet aggregation induced by thrombin at 0.1 U/mL concentration.
For test [3], the species on record is Homo sapiens. In words: Inhibitory concentration for anti-platelet aggregation induced by collagen at 10 ug/mL concentration.
Test [4] is filed under the species Homo sapiens. In words: Inhibitory concentration for anti-platelet aggregation induced by arachidonic acid at 100 uM concentration.
The species named for test [5] is Homo sapiens. In words: Inhibitory concentration against superoxide anion (O2-) generation in human neutrophils induced by FMLP (formyl-Met-Leu-Phe) and […](phorbol myristate acetate).
The species named for test [6] is Homo sapiens. In words: Inhibitory concentration against neutrophil elastase release induced by FMLP (formyl-Met-Leu-Phe).

Where only a bound is given, the exact number is not on record here.

Take `COc1cccc2c(=O)oc(-c3ccc(Br)cc3)nc12`: the IC50 in the test listed under Homo sapiens [1] was over 100 µM; in the test filed under Homo sapiens [2], over 100 µM; in the test filed under Homo sapiens [3], over 100 µM; in the test filed under Homo sapiens [4], over 100 µM; in the test filed under Homo sapiens [5], over 40 µM.
In the case of `COc1cccc2c(=O)oc(-c3ccccc3F)nc12`, the IC50 in the test filed under Homo sapiens [1] was over 100 µM; in the test filed under Homo sapiens [2], 7.2 µM; in the test listed under Homo sapiens [3] it was 39.4 µM; in the test listed under Homo sapiens [4], 8 µM; in the test listed under Homo sapiens [5], 9.74 µM.
For `COc1cccc2c(=O)oc(-c3ccccc3Cl)nc12`, in that order: over 100 µM, 6.9 µM, 35.5 µM, 11.8 µM and 14.7 µM.
For the compound `COc1ccccc1-c1nc2c(OC)cccc2c(=O)o1`, the IC50 in the test filed under Homo sapiens [1] was over 100 µM; in the test filed under Homo sapiens [2], over 100 µM; in the test listed under Homo sapiens [3], over 100 µM; in the test listed under Homo sapiens [4], over 100 µM; in the test listed under Homo sapiens [5], 14 µM; in the test listed under Homo sapiens [6], 1.59 µM.
With `COc1ccccc1-c1nc2c(C)cccc2c(=O)o1`, the IC50 was over 100 µM in the test filed under Homo sapiens [1]; over 100 µM in the test filed under Homo sapiens [2]; 54.7 µM in the test listed under Homo sapiens [3]; 36.6 µM in the test listed under Homo sapiens [4]; 22.7 µM in the test filed under Homo sapiens [5]; 7.23 µM in the test filed under Homo sapiens [6].
Take `Cc1cccc2c(=O)oc(-c3ccccc3F)nc12`: the half-inhibitory concentration (IC50) in the test filed under Homo sapiens [1] was over 100 µM; in the test listed under Homo sapiens [2], 34.3 µM; in the test listed under Homo sapiens [3], 11.9 µM; in the test listed under Homo sapiens [4], 6.8 µM; in the test filed under Homo sapiens [5] it was 10.8 µM; in the test filed under Homo sapiens [6] it was over 40 µM.
Turning to `O=c1oc(-c2ccccc2Cl)nc2c(Cl)cccc12`, the concentration for half-maximal inhibition (IC50) in the test listed under Homo sapiens [1] came out at 69.5 µM; in the test listed under Homo sapiens [2] it was 6.6 µM; in the test listed under Homo sapiens [3] it was 30 µM; in the test filed under Homo sapiens [4], 6.1 µM; in the test listed under Homo sapiens [5] it was 8.66 µM; in the test listed under Homo sapiens [6] it was 1.89 µM.
Turning to `O=c1oc(-c2ccccc2F)nc2c(Cl)cccc12`, the IC50 is 87.4 µM in the test listed under Homo sapiens [1]; 14.7 µM in the test listed under Homo sapiens [2]; 49.1 µM in the test listed under Homo sapiens [3]; 12.7 µM in the test listed under Homo sapiens [4]; over 40 µM in the test listed under Homo sapiens [5]; 6.03 µM in the test filed under Homo sapiens [6].
Turning to `COc1ccccc1-c1nc2c(Cl)cccc2c(=O)o1`, the half-maximal inhibitory concentration (IC50) in the test listed under Homo sapiens [1] was determined as 70.3 µM; in the test listed under Homo sapiens [2] it was 14.8 µM; in the test filed under Homo sapiens [3] it was 44.9 µM; in the test filed under Homo sapiens [4], 25.4 µM; in the test listed under Homo sapiens [5], 10 µM; in the test listed under Homo sapiens [6], 1.91 µM.
For `Cc1cccc2c(=O)oc(-c3ccccc3Cl)nc12`, the IC50 in the test listed under Homo sapiens [1] was over 100 µM; in the test filed under Homo sapiens [2], 11.9 µM; in the test filed under Homo sapiens [3], 12.6 µM; in the test listed under Homo sapiens [4] it was 4.3 µM; in the test listed under Homo sapiens [5], 29.9 µM; in the test listed under Homo sapiens [6], over 40 µM.
For the compound `O=c1oc(-c2ccccc2Br)nc2c(Cl)cccc12`, the IC50 in the test listed under Homo sapiens [1] was 87.5 µM; in the test filed under Homo sapiens [2], 7.1 µM; in the test filed under Homo sapiens [3], 47 µM; in the test listed under Homo sapiens [4] it was 10.2 µM; in the test listed under Homo sapiens [5], 6.56 µM; in the test filed under Homo sapiens [6], 1.69 µM.
With `COc1cccc2c(=O)oc(-c3ccccc3C)nc12`, the IC50 in the test filed under Homo sapiens [1] is over 100 µM; in the test listed under Homo sapiens [2], 67 µM; in the test filed under Homo sapiens [3], 34.3 µM; in the test listed under Homo sapiens [4] it was 8.4 µM; in the test listed under Homo sapiens [5], 11.4 µM; in the test listed under Homo sapiens [6], 10.6 µM.
Turning to `Cc1ccccc1-c1nc2c(C)cccc2c(=O)o1`, the IC50 was over 100 µM in the test filed under Homo sapiens [1]; over 100 µM in the test listed under Homo sapiens [2]; over 100 µM in the test listed under Homo sapiens [3]; 19.3 µM in the test filed under Homo sapiens [4]; 23.6 µM in the test listed under Homo sapiens [5]; over 40 µM in the test filed under Homo sapiens [6].
In the case of `Cc1cccc2c(=O)oc(-c3ccccc3Br)nc12`, the IC50 in the test listed under Homo sapiens [1] was 89.3 µM; in the test filed under Homo sapiens [2], 18.9 µM; in the test filed under Homo sapiens [3] it was 49.8 µM; in the test filed under Homo sapiens [4] it was 5.8 µM; in the test filed under Homo sapiens [5] it was 30.2 µM; in the test filed under Homo sapiens [6], over 40 µM.
In the case of `CCc1nc2c(OC)cccc2c(=O)o1`, the concentration for half-maximal inhibition (IC50) in the test listed under Homo sapiens [1] is over 40 µM; in the test listed under Homo sapiens [2], over 40 µM; in the test filed under Homo sapiens [3] it was over 100 µM; in the test listed under Homo sapiens [4], over 100 µM; in the test listed under Homo sapiens [5], 100 µM; in the test filed under Homo sapiens [6], 100 µM.
On to `COc1cccc2c(=O)oc(C)nc12`, for which the IC50 in the test listed under Homo sapiens [1] is over 100 µM; in the test filed under Homo sapiens [2], over 100 µM; in the test listed under Homo sapiens [3] it was over 100 µM; in the test filed under Homo sapiens [4] it was over 100 µM; in the test listed under Homo sapiens [5], over 40 µM; in the test listed under Homo sapiens [6], over 40 µM.
For the compound `Cc1ccccc1-c1nc2c(Cl)cccc2c(=O)o1`, the concentration for half-maximal inhibition (IC50) is 91.9 µM in the test listed under Homo sapiens [1]; 36.3 µM in the test filed under Homo sapiens [2]; 63.3 µM in the test listed under Homo sapiens [3]; 13.8 µM in the test listed under Homo sapiens [4]; 17.5 µM in the test listed under Homo sapiens [5]; over 40 µM in the test filed under Homo sapiens [6].
In the case of `COc1cccc2c(=O)oc(-c3ccccc3Br)nc12`, the IC50 was over 100 µM in the test filed under Homo sapiens [1]; 4.4 µM in the test listed under Homo sapiens [2]; 21.1 µM in the test filed under Homo sapiens [3]; 13 µM in the test listed under Homo sapiens [4]; 16.7 µM in the test filed under Homo sapiens [5].
Consider `COc1cccc2c(=O)oc(-c3ccc(Cl)cc3)nc12`, for which the IC50 in the test filed under Homo sapiens [1] was over 100 µM; in the test filed under Homo sapiens [2] it was over 100 µM; in the test listed under Homo sapiens [3], over 100 µM; in the test listed under Homo sapiens [4], over 100 µM; in the test listed under Homo sapiens [5], over 40 µM.
Consider `COc1cccc2c(=O)oc(-c3ccccc3)nc12`, for which the IC50 in the test listed under Homo sapiens [1] was over 100 µM; in the test listed under Homo sapiens [2] it was 48.2 µM; in the test listed under Homo sapiens [3], 33.8 µM; in the test listed under Homo sapiens [4] it was 47.3 µM; in the test listed under Homo sapiens [5] it was over 40 µM; in the test filed under Homo sapiens [6], over 40 µM.
Take `CCCCc1nc2c(OC)cccc2c(=O)o1`: the IC50 in the test listed under Homo sapiens [1] was over 100 µM; in the test listed under Homo sapiens [2], over 100 µM; in the test listed under Homo sapiens [3], over 100 µM; in the test filed under Homo sapiens [4] it was over 100 µM; in the test filed under Homo sapiens [5], over 40 µM; in the test listed under Homo sapiens [6] it was over 40 µM.
For the compound `CC(=O)Oc1ccccc1C(=O)O` [ASPIRIN], the IC50 in the test filed under Homo sapiens [1] is over 100 µM; in the test listed under Homo sapiens [2], over 100 µM; in the test filed under Homo sapiens [3], 34.9 µM; in the test listed under Homo sapiens [4], 34.6 µM.
For the compound `c1ccc2c(c1)[I+]c1ccccc1-2` [DIPHENYLENEIODONIUM], the half-inhibitory concentration (IC50) in the test filed under Homo sapiens [5] was 0.46 µM.
